Measurements from PMC4490784, “Compensatory induction of MYC expression by sustained CDK9 inhibition via a BRD4-dependent mechanism” (eLife, 2015).

Assays:
Assay in all cases: KINOMEscan binding assay
[1] = biological target: T1, RIOK1 (Homo sapiens, UniProt Q9BRS2); settings: read-out: % Retention on Solid Support
T1 construct: purchased DiscoveRx KINOMEscan
Method in brief: (§1)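 Panel of >400 kinases screened by active-site competition binding, compound at 1 and 10 µM.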

[2] = biological target: T2, CDK13 (Homo sapiens, UniProt Q14004); settings: 1 µM i-CDK9
T2 construct: purchased DiscoveRx
Method in brief: as §1

[3] = biological target: T3, ASK1 (Homo sapiens, UniProt Q99683); settings: read-out: % Retention on Solid Support
T3 construct: purchased DiscoveRx KINOMEscan
Method in brief: as §1

[4] = biological target: T4, RPS6KA4(Kin.Dom.1-N-terminal) (Homo sapiens, UniProt O75676); settings: read-out: % Retention on Solid Support
T4 construct: RPS6KA4(Kin.Dom.1-N-terminal); purchased DiscoveRx KINOMEscan
Method in brief: as §1

[5] = biological target: T5, WEE1 (Homo sapiens, UniProt P30291); settings: read-out: % Retention on Solid Support
T5 construct: purchased DiscoveRx KINOMEscan
Method in brief: as §1

[6] = biological target: T6, AMPK-alpha2 (Homo sapiens, UniProt P54646); settings: read-out: % Retention on Solid Support
T6 construct: purchased DiscoveRx KINOMEscan
T6 sequence (P54646 whole entry): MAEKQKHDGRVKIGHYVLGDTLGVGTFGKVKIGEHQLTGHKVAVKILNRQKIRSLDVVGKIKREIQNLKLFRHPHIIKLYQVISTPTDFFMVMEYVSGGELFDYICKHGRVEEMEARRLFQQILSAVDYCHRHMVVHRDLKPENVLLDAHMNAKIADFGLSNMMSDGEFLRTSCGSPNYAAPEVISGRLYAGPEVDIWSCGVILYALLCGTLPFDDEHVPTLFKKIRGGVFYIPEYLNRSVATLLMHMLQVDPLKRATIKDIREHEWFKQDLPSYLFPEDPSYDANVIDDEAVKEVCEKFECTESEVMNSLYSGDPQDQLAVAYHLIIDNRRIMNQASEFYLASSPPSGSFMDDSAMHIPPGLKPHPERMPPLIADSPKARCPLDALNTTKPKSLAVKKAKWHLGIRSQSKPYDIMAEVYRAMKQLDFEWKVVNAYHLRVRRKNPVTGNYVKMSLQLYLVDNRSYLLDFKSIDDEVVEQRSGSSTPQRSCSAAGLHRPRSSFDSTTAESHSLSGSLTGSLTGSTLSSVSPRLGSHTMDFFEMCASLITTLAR
Method in brief: as §1

[7] = biological target: T7, ALK (Homo sapiens, UniProt Q9UM73); settings: read-out: % Retention on Solid Support
T7 construct: purchased DiscoveRx KINOMEscan
Method in brief: as §1

[8] = biological target: T8, BRSK1 (Homo sapiens, UniProt Q8TDC3); settings: read-out: % Retention on Solid Support
T8 construct: purchased DiscoveRx KINOMEscan
Method in brief: as §1

[9] = biological target: T9, EPHA3 (Homo sapiens, UniProt P29320); settings: read-out: % Retention on Solid Support
T9 construct: purchased DiscoveRx KINOMEscan
Method in brief: as §1

[10] = biological target: T10, PRKCQ (Homo sapiens, UniProt Q04759); settings: read-out: % Retention on Solid Support
T10 construct: purchased DiscoveRx KINOMEscan
Method in brief: as §1

[11] = biological target: T11, MAST1 (Homo sapiens, UniProt Q9Y2H9); settings: read-out: % Retention on Solid Support
T11 construct: purchased DiscoveRx KINOMEscan
Method in brief: as §1

[12] = biological target: T12, TNK2 (Homo sapiens, UniProt Q07912); settings: read-out: % Retention on Solid Support
T12 construct: purchased DiscoveRx KINOMEscan
T12 sequence (Q07912 whole entry): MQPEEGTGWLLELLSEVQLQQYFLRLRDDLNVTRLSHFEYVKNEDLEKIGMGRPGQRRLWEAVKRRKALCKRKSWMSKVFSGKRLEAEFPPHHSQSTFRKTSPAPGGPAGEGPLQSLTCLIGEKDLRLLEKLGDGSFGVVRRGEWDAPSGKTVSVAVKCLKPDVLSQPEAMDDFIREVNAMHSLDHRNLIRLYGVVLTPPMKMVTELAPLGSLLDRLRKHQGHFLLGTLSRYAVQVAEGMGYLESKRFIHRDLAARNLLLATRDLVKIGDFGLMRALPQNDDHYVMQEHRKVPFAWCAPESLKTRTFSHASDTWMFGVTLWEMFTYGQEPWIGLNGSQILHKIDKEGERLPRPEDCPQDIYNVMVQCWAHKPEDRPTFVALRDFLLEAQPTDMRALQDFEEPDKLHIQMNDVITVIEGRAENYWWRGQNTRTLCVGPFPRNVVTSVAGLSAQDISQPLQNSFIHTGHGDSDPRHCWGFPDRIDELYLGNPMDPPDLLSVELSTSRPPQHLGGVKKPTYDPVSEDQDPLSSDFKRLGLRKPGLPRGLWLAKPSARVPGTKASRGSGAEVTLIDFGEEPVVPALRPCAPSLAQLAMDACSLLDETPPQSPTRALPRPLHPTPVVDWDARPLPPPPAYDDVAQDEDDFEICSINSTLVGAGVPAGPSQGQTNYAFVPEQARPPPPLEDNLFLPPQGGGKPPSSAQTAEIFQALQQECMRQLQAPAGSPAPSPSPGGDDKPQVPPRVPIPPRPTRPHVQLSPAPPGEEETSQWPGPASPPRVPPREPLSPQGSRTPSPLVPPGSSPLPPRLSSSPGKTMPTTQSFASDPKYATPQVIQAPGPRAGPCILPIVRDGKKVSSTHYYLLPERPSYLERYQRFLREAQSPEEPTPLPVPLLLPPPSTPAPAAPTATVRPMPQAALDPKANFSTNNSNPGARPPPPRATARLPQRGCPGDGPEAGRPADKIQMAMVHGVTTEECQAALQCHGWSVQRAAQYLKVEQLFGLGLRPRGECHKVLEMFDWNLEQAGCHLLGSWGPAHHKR
Method in brief: as §1

[13] = biological target: T13, PKAC-alpha (Homo sapiens, UniProt P17612); settings: read-out: % Retention on Solid Support
T13 construct: purchased DiscoveRx KINOMEscan
Method in brief: as §1

[14] = biological target: T14, TRKB (Homo sapiens, UniProt Q16620); settings: read-out: % Retention on Solid Support
T14 construct: purchased DiscoveRx KINOMEscan
T14 sequence (Q16620 32-822): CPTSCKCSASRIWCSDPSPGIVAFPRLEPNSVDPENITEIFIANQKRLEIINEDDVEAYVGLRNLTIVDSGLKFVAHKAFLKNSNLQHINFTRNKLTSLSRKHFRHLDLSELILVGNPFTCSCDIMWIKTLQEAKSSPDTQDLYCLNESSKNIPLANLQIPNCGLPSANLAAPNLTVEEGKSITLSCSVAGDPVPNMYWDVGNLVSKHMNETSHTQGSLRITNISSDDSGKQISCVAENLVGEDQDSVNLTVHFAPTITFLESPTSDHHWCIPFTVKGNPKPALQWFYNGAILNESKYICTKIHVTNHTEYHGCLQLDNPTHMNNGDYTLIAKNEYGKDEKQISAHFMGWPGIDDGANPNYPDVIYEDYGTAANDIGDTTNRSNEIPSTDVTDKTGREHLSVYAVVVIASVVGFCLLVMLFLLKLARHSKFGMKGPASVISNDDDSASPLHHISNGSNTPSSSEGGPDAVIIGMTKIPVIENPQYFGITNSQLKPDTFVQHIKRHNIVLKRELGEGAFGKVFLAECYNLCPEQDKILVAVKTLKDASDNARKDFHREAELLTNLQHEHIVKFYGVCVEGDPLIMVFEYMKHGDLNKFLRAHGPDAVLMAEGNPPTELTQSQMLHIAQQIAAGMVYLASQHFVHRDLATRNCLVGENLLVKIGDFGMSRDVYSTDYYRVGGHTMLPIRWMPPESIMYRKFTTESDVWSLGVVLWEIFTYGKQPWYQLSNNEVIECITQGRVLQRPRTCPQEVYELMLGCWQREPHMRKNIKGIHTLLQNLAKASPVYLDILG
Method in brief: as §1

[15] = biological target: T15, PIK3C2G (Homo sapiens, UniProt O75747); settings: read-out: % Retention on Solid Support
T15 construct: purchased DiscoveRx KINOMEscan
Method in brief: as §1

[16] = biological target: T16, PIK3CA(Q546K) (Homo sapiens, UniProt P42336, Q546K); settings: read-out: % Retention on Solid Support
T16 construct: purchased DiscoveRx KINOMEscan
T16 sequence (P42336 whole entry Q546K): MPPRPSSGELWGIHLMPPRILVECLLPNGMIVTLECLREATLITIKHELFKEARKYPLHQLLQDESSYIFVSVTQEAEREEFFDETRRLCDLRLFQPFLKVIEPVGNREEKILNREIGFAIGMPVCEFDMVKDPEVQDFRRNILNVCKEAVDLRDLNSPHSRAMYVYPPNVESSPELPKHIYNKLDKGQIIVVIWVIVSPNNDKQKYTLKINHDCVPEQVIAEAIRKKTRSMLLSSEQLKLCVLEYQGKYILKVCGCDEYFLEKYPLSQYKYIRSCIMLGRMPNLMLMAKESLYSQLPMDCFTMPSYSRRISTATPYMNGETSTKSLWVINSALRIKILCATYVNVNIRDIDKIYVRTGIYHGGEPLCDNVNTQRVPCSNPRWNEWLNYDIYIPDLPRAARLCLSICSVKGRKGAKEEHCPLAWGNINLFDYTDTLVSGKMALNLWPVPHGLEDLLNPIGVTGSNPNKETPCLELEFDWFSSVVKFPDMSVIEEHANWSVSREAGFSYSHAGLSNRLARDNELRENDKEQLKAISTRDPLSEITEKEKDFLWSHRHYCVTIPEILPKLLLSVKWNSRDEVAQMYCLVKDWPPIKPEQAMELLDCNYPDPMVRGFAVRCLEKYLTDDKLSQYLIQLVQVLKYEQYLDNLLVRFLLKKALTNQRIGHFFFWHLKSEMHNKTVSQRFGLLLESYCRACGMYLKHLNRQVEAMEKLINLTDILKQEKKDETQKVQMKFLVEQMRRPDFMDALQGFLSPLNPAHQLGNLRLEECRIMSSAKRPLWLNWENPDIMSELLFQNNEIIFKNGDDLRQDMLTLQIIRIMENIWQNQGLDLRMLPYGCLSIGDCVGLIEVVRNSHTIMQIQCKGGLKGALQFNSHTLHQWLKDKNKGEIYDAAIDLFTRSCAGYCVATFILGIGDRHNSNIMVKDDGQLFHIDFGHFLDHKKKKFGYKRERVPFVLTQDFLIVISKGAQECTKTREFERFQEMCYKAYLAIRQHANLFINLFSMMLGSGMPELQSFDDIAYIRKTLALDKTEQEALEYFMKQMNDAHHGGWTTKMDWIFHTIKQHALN
Method in brief: as §1

[17] = biological target: T17, MLCK (Homo sapiens, UniProt Q32MK0); settings: read-out: % Retention on Solid Support
T17 construct: purchased DiscoveRx KINOMEscan
Method in brief: as §1

[18] = biological target: T18, ROS1 (Homo sapiens, UniProt P08922); settings: read-out: % Retention on Solid Support
T18 construct: purchased DiscoveRx KINOMEscan
Method in brief: as §1

[19] = biological target: T19, EPHA6 (Homo sapiens, UniProt Q9UF33); settings: read-out: % Retention on Solid Support
T19 construct: purchased DiscoveRx KINOMEscan
T19 sequence (Q9UF33 23-1036): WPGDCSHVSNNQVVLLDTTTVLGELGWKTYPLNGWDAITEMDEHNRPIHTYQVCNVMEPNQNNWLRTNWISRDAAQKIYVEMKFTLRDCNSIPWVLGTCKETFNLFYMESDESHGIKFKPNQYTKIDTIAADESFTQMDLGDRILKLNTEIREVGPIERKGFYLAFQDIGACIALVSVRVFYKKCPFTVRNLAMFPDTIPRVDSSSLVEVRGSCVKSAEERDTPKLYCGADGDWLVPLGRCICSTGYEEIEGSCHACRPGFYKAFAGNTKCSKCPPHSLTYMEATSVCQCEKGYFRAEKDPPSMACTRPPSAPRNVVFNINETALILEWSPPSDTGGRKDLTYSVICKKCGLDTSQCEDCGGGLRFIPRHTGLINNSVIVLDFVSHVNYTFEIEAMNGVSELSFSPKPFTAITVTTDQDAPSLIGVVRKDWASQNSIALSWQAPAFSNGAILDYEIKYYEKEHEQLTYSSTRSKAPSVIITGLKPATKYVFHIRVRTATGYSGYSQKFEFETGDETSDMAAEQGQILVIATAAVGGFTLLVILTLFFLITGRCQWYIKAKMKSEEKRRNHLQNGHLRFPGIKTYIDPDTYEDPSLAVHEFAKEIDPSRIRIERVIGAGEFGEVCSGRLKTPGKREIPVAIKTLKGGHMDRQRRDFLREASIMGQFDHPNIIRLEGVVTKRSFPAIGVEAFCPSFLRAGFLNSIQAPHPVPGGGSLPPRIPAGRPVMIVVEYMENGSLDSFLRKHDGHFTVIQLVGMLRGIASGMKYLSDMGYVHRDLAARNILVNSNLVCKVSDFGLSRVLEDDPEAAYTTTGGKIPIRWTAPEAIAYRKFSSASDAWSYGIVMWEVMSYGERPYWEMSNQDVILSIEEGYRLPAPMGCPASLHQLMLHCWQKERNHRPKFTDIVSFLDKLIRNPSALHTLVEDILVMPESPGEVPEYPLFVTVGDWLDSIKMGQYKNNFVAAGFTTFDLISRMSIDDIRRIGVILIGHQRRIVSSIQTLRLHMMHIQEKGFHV
Method in brief: as §1

[20] = biological target: T20, NEK9 (Homo sapiens, UniProt Q8TD19); settings: read-out: % Retention on Solid Support
T20 construct: purchased DiscoveRx KINOMEscan
Method in brief: as §1

[21] = biological target: T21, PIK3CA(E545K) (Homo sapiens, UniProt P42336, E545K); settings: read-out: % Retention on Solid Support
T21 construct: purchased DiscoveRx KINOMEscan
Method in brief: as §1

[22] = biological target: T22, EIF2AK1 (Homo sapiens, UniProt Q9BQI3); settings: 1 µM i-CDK9; read-out: % Retention on Solid Support
T22 construct: purchased DiscoveRx KINOMEscan
Method in brief: as §1

[23] = biological target: T23, BRAF(V600E) (Homo sapiens, UniProt P15056, V600E); settings: read-out: % Retention on Solid Support
T23 construct: purchased DiscoveRx KINOMEscan
Method in brief: as §1

[24] = biological target: T24, TAK1 (Homo sapiens, UniProt O43318); settings: read-out: % Retention on Solid Support
T24 construct: purchased DiscoveRx KINOMEscan
T24 sequence (O43318 whole entry): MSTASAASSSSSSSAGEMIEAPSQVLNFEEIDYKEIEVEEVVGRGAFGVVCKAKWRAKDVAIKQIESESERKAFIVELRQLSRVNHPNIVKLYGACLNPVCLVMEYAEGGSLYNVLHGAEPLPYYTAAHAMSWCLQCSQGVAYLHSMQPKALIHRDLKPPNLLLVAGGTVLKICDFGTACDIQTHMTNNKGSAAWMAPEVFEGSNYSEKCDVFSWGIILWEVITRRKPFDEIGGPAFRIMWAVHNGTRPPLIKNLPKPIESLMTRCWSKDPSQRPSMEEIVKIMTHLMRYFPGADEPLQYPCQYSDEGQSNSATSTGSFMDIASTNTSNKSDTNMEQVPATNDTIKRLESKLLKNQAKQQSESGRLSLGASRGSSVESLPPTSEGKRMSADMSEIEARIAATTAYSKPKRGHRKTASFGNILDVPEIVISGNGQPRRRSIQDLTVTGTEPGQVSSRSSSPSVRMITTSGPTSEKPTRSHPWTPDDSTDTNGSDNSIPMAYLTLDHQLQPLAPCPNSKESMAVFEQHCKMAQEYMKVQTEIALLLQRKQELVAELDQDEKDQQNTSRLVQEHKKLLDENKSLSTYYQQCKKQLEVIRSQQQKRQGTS
Method in brief: as §1

[25] = biological target: T25, FLT3(N841I) (Homo sapiens, UniProt P36888, N841I); settings: read-out: % Retention on Solid Support
T25 construct: purchased DiscoveRx KINOMEscan
Method in brief: as §1

[26] = biological target: T26, DRAK2 (Homo sapiens, UniProt O94768); settings: read-out: % Retention on Solid Support
T26 construct: purchased DiscoveRx KINOMEscan
Method in brief: as §1

[27] = biological target: T27, PIP5K2B (Homo sapiens, UniProt P78356); settings: read-out: % Retention on Solid Support
T27 construct: purchased DiscoveRx KINOMEscan
Method in brief: as §1

[28] = biological target: T28, MAP4K4 (Homo sapiens, UniProt O95819); settings: read-out: % Retention on Solid Support
T28 construct: purchased DiscoveRx KINOMEscan
Method in brief: as §1

[29] = biological target: T29, CSNK2A1 (Homo sapiens, UniProt P68400); settings: read-out: % Retention on Solid Support
T29 construct: purchased DiscoveRx KINOMEscan
Method in brief: as §1

N[C@H]1CC[C@H](Nc2cc(-c3cccc(NCc4cccc(F)c4)n3)c(Cl)cn2)CC1 [i-CDK9, N2′-(trans-4-aminocyclohexyl)-5′-chloro-N6-(3-fluorobenzyl)-2,4′-bipyridine-2′,6-diamine]
remaining binding at 1 µM ([1]; 1 µM i-CDK9): 100% | remaining binding at 10 µM ([1]; 10 µM i-CDK9): 57% | % binding to immobilized ligand [2]: 100% | remaining binding at 1 µM ([3]; 1 µM i-CDK9): 100% | remaining binding at 10 µM ([3]; 10 µM i-CDK9): 100% | remaining binding at 1 µM ([4]; 1 µM i-CDK9): 48% | remaining binding at 10 µM ([4]; 10 µM i-CDK9): 84% | remaining binding at 1 µM ([5]; 1 µM i-CDK9): 100% | remaining binding at 10 µM ([5]; 10 µM i-CDK9): 100% | remaining binding at 1 µM ([6]; 1 µM i-CDK9): 83% | remaining binding at 10 µM ([6]; 10 µM i-CDK9): 88% | remaining binding at 1 µM ([7]; 1 µM i-CDK9): 86% | remaining binding at 10 µM ([7]; 10 µM i-CDK9): 70% | remaining binding at 1 µM ([8]; 1 µM i-CDK9): 100% | remaining binding at 10 µM ([8]; 10 µM i-CDK9): 89% | remaining binding at 1 µM ([9]; 1 µM i-CDK9): 85% | remaining binding at 10 µM ([9]; 10 µM i-CDK9): 100% | remaining binding at 1 µM ([10]; 1 µM i-CDK9): 100% | remaining binding at 10 µM ([10]; 10 µM i-CDK9): 88% | remaining binding at 1 µM ([11]; 1 µM i-CDK9): 100% | remaining binding at 10 µM ([11]; 10 µM i-CDK9): 82% | remaining binding at 1 µM ([12]; 1 µM i-CDK9): 88% | remaining binding at 10 µM ([12]; 10 µM i-CDK9): 99% | remaining binding at 1 µM ([13]; 1 µM i-CDK9): 86% | remaining binding at 10 µM ([13]; 10 µM i-CDK9): 100% | remaining binding at 1 µM ([14]; 1 µM i-CDK9): 100% | remaining binding at 10 µM ([14]; 10 µM i-CDK9): 100% | remaining binding at 1 µM ([15]; 1 µM i-CDK9): 100% | remaining binding at 10 µM ([15]; 10 µM i-CDK9): 99% | remaining binding at 1 µM ([16]; 1 µM i-CDK9): 73% | remaining binding at 10 µM ([16]; 10 µM i-CDK9): 100% | remaining binding at 1 µM ([17]; 1 µM i-CDK9): 100% | remaining binding at 10 µM ([17]; 10 µM i-CDK9): 90% | remaining binding at 1 µM ([18]; 1 µM i-CDK9): 98% | remaining binding at 10 µM ([18]; 10 µM i-CDK9): 100% | remaining binding at 1 µM ([19]; 1 µM i-CDK9): 100% | remaining binding at 10 µM ([19]; 10 µM i-CDK9): 91% | remaining binding at 1 µM ([20]; 1 µM i-CDK9): 100% | remaining binding at 10 µM ([20]; 10 µM i-CDK9): 100% | remaining binding at 1 µM ([21]; 1 µM i-CDK9): 100% | remaining binding at 10 µM ([21]; 10 µM i-CDK9): 95% | remaining binding at 1 µM [22]: 85% | remaining binding at 1 µM ([23]; 1 µM i-CDK9): 100% | remaining binding at 10 µM ([23]; 10 µM i-CDK9): 88% | remaining binding at 1 µM ([24]; 1 µM i-CDK9): 100% | remaining binding at 10 µM ([24]; 10 µM i-CDK9): 82% | remaining binding at 1 µM ([25]; 1 µM i-CDK9): 48% | remaining binding at 10 µM ([25]; 10 µM i-CDK9): 72% | remaining binding at 1 µM ([26]; 1 µM i-CDK9): 82% | remaining binding at 10 µM ([26]; 10 µM i-CDK9): 72% | remaining binding at 1 µM ([27]; 1 µM i-CDK9): 100% | remaining binding at 10 µM ([27]; 10 µM i-CDK9): 77% | remaining binding at 1 µM ([28]; 1 µM i-CDK9): 65% | remaining binding at 10 µM ([28]; 10 µM i-CDK9): 19% | remaining binding at 1 µM ([29]; 1 µM i-CDK9): 100% | remaining binding at 10 µM ([29]; 10 µM i-CDK9): 100%
